Experimental data taken from ChEMBL document CHEMBL1149133, “3,3-diaryl-1,3-dihydroindol-2-ones as antiproliferatives mediated by translation initiation inhibition” (2004).

Tests used:
Lung cancer cell line = assay: In vitro anticancer activity against human lung cancer cell line; type: functional
[1] = Compound evaluated for their ability to phosphorylate eIF2R; type: functional; set-up: unit not given here

Row | GI50 (Lung cancer cell line) | SMILES | Activity [1]
1 | 8 µM | O=C1Nc2ccc(I)cc2C1(c1ccccc1)c1ccccc1 | 1.31
2 | – | COc1ccccc1C1(c2ccc(C(C)(C)C)cc2)C(=O)Nc2ccccc21 (stereo not given) | 0.93
3 | – | CC(C)(C)c1ccc(O)c(C2(c3ccccc3)C(=O)Nc3ccc(I)cc32)c1 (stereo not given) | 1.4
4 | 4 µM | CC(C)(C)c1cccc(C2(c3ccccc3)C(=O)Nc3ccccc32)c1 (stereo not given) | 1.04
5 | 13 µM | O=C1Nc2ccccc2C1(c1ccccc1)c1ccccc1 | 1
6 | 14 µM | CC(C)(C)c1ccc(C2(c3ccc(O)cc3)C(=O)Nc3ccccc32)cc1 (stereo not given) | 2.01
7 | 4 µM | CC(C)(C)c1ccc(O)c(C2(c3ccccc3)C(=O)Nc3ccccc32)c1 (stereo not given) | 2
8 | – | O=C1Nc2ccc(F)cc2C1(c1ccccc1)c1ccccc1 | 0.44
9 | 14 µM | O=C1Nc2ccc([N+](=O)[O-])cc2C1(c1ccccc1)c1ccccc1 | 1.2
10 | – | O=C1Nc2ccc(Cl)cc2C1(c1ccccc1)c1ccccc1 | 0.61
11 | – | O=C1Nc2ccc(Br)cc2C1(c1ccccc1)c1ccccc1 | 0.79
12 | – | O=C1Nc2cccc(Br)c2C1(c1ccccc1)c1ccccc1 | 0.84
13 | > 20 µM | CCc1ccc2c(c1)C(c1ccccc1)(c1ccccc1)C(=O)N2 | 0.85
14 | – | COc1ccccc1C1(c2ccccc2)C(=O)Nc2ccccc21 (stereo not given) | 0.48
15 | – | O=C1Nc2ccccc2C1(c1ccccc1)c1ccccc1O (stereo not given) | 0.56
16 | 8 µM | CC(C)(C)c1ccc(C2(c3ccccc3)C(=O)Nc3ccccc32)cc1 (stereo not given) | 0.95
17 | 7 µM | CC(C)(C)c1ccc(C2(c3ccccc3O)C(=O)Nc3ccccc32)cc1 (stereo not given) | 1.33
18 | > 20 µM | CN1C(=O)C(c2ccccc2)(c2ccccc2)c2ccccc21 | –
19 | – | O=C1Nc2ccccc2C1(c1ccccc1)c1ccc(O)cc1 (stereo not given) | 0.86
20 | – | O=C1Nc2cc(Br)ccc2C1(c1ccccc1)c1ccccc1 | 0.89
21 | 9 µM | O=C1Nc2ccc(S(=O)(=O)O)cc2C1(c1ccccc1)c1ccccc1 | –
